Laboratory results as given in patent publication US6545030B1, “1-heterocycle substituted diarylamines” (Warner-Lambert Company, priority 1999, dated 2003).
Structures can show the parent of a compound that is named as a salt.

| melting point | Compound |
| --- | --- |
| 324 to 330 °C | Cc1cc(I)ccc1Nc1ccc(Cl)cc1C1=NC(C)(C)CO1 (as salt: salt) [Example 1, [4-Chloro-2-(4,4-Dimethyl-4,5-dihydro-oxazol-2-yl)-phenyl]-(4-iodo-2-methyl-phenyl)-amine] |
| 144.4 to 145.5 °C | Cc1cc(I)ccc1Nc1c(-c2nnco2)ccc(F)c1F [Example 9, (2,3-Difluoro-6-[1,3,4]oxadiazol-2-yl-phenyl)-(4-iodo-2-methyl-phenyl)-amine] |
| 231.8 to 232.8 °C | Cc1cc(I)ccc1Nc1c(-c2nnc(S)o2)ccc(F)c1F [Example 10, 5-[3,4-Difluoro-2-(4-iodo-2-methyl-phenylamino)-phenyl]-[1,3,4]oxadiazole-2-thiol] |
